Laboratory results: patent publication US7795215B2, “MNTF peptides and compositions and methods of use” (Genervon Biopharmaceuticals LLC, priority 2003, dated 2010)
“Also recorded” adds a separate entry of the source. Where no end group is shown, it is not given here.

Tests used:
[1] = system: VSC4.1 cells, a motor neuron/neuroblastoma cell hybrid; test: VSC4.1 cell proliferation assay (BrdU); assay type: cell-based; settings: for Biological Function / OD (optimal dose): VSC4.1 proliferation; for maximal increase in cell proliferation: % increase over control; for stimulation of VSC4.1 cell proliferation over controls: second round of experiments
Protocol: Studies of proliferation were performed in 96 well plates utilizing a cell proliferation assay kit from Roche Diagnostics GmbH (Mannheim, Germany). VSC4.1 cells, a motor neuron/neuroblastoma cell hybrid, were cultured in DMEM with 2% FBS containing either no MNTF or a dose range of MNTF from 10^−8 to 10^−5 g/ml. Each treatment was applied in triplicate wells. The cells were cultured for 21 hours and 5-bromo-2′-deoxyuridine (BrdU) from the assay kit was added to each well. After BrdU labeling for 3 hours, the cells were washed, fixed and dried. The cells were then fixed and the DNA denatured to improve access for the subsequent antibody binding. POD-labeled mouse monoclonal anti-BrdU antibody from the assay kit was applied for 2 hours, followed by a wash. The assay was quantitated by adding the colorimetric assay solution (tetramethyl benzidine) and reading at 450 nm on a Wallac Vector 2 plate reader. Cells in the treatment groups were quantitated by comparing to wells plated with a gradient of cells from 0 to 20,000 cells/well on the same plate. Data is expressed as % of control to allow for variability from plate to plate.
Additional cell proliferation assays, conducted essentially as described above, were performed to compare the effects of several GLP grade MNTF peptides.
Further cell proliferation studies were performed, essentially as described above, to test the response of the motor neuron/neuroblastoma cells to three new preparations of MNTF. The MNTF preparations utilized for these assays were: […]

rat femoral nerve = test: Femoral nerve model, MNTF pump experiments (Preferential Motor Reinnervation); assay type: in vivo
Protocol: The specificity of motor axon regeneration was investigated in the rat femoral nerve. Proximally, at the site of nerve transection and suture, axons that contribute to both cutaneous and muscle branches intermingle throughout the nerve. As these axons regenerate, they have equal access to neighboring motor and sensory Schwann cell tubes in the distal nerve stump. This assures an element of “choice” at the axonal level. Distally, where the specificity of regeneration is assessed, axons are segregated into terminal cutaneous and muscle branches. Motor axons are normally found only in the muscle branch, so any motor reinnervation of the cutaneous branch represents a pathfinding failure. The specificity of axon regeneration is evaluated by simultaneous application of horseradish peroxidase (HRP) to one distal femoral branch and fluoro-gold (FG) to the other. Motor-axon regeneration is random at 3 weeks, but the number of correct projections to muscle increases dramatically at later times. Many neurons initially contain both tracers, and thus project collaterals to both cutaneous and muscle branches. The number of these double-labeled neurons decreases with time. Motor axon collaterals are thus pruned from the cutaneous branch, increasing the number of correct projections to muscle at the expense of double-labeled neurons. A specific interaction thus occurs between regenerating motor axons and muscle and/or muscle nerve that we have termed Preferential Motor Reinnervation (PMR).
In preliminary experiments we attempted to modify motor axon regeneration in the femoral nerve by pumping MNTF 33mer at 10^−4 M onto the repair site, using an Alzet osmotic pump which discharges for at least 2 weeks. The output of the pump was sewn to muscle adjacent to the nerve repair, so that the nerve wound would be continuously bathed with the factor. Reinnervation of the distal femoral cutaneous and muscle branches was quantified with tracers as described above.
In a follow-up experiment MNTF 33mer was administered to eight transected and sutured rat femoral nerves at 10^−4 M, essentially as described above. Controls were a group of six nerves that underwent routine suture with pumps delivering saline but no MNTF. A mean of 100 motoneurons projected correctly in the six controls, whereas a mean of 87 motoneurons projected incorrectly to skin.
To determine if a truncated MNTF peptide could be substituted for MNTF 33mer, subsequent experiments were performed, essentially as described above, using the MNTF 6mer FSRYAR, at 10^−4 M (n=8), 10^−5 M (n=8) and 10^−6 M (n=8), with a total of 22 saline controls for comparison. […] Thus the 6mer is capable of promoting selective reinnervation of target muscles in a manner similar to the MNTF1 33mer.

[2] = second set, FIG. 3, highest dose
[3] = 10^−4 M, 10^−5 M and 10^−6 M, FIG. 5, vs saline controls
[4] = earliest studies, FIG. 2, listed as GLP grade MNTF 33mer
[5] = earliest studies, FIG. 2, listed as MNTF 33mer (research grade)
[6] = follow-up experiment, 10^−4 M, eight nerves, saline pump controls
[7] = preliminary experiments, 10^−4 M by Alzet osmotic pump, three weeks, three animals

| Substance | Biological Function ([1]; assay set Aug. 4, 2003) | OD (optimal dose) ([1]; assay set Aug. 4, 2003) [µg/mL] | effect on proliferation of motor neuron/neuroblastoma cells (summary in description) ([1]; in vitro) | relative effectiveness in proliferation assay (words) ([1]; third set, FIG. 4) | Biological Function ([1]; assay set Oct. 27, 2002) | dose of maximal response ([1]; earliest studies, FIG. 2) [µg/mL] | relative effectiveness in proliferation assay (words) ([1]; earliest studies, FIG. 2) | maximal increase in cell proliferation ([1]; earliest studies, FIG. 2) [%] | Biological Function ([1]; assay set Mar. 28, 2003) | OD (optimal dose) ([1]; assay set Mar. 28, 2003) [µg/mL] | OD (optimal dose) ([1]; assay set Oct. 27, 2002) [µg/mL] | relative effectiveness in proliferation assay (words) ([1]; second set, FIG. 3) | also measured |
| --- | --- | --- | --- | --- | --- | --- | --- | --- | --- | --- | --- | --- | --- |
| MLSAFSRYAR [10mer] | Effective | 0.01 | at least as effective the full-length MNTF 33mer | significantly (p<0.05) stimulated proliferation over control; also recorded: most active proliferative agent; also recorded: clearly superior to the 21mer |  |  |  |  |  |  |  |  | lowest concentration at which at least as effective as MNTF 33mer ([1]; in vitro): 0.01 µg/mL; increase in proliferation over controls ([1]; third set, FIG. 4, three lowest doses used): ~200% |
| MLSAFSRYARCLAEGHDGPTQ [21mer] | Effective | 0.1 | sufficient to increase cell proliferation of motor neuron/neuroblastoma cells | significantly (p<0.05) stimulated proliferation over control; also recorded: about half that of the other two MNTF isoforms |  |  |  |  |  |  |  |  |  |
| cyclized MNTF 13mer: cyclized version of the 13-mer CWMLSAFSRYARC, SEQ ID NO:6, research grade (also: cyclized) |  |  | not as effective at stimulating cell proliferation in vitro |  | Limited Efficacy. | 1 | least effective of all peptides tested | 17.3 |  |  |  |  | effect on proliferation at higher doses ([1]; earliest studies, FIG. 2, higher doses): appeared to inhibit proliferation; relative effectiveness in proliferation assay (words) ([1]; earliest studies, FIG. 2, listed as cyclized 13mer): markedly less effective |
| WMLSAFS [7mer] |  |  | potent stimulator of motor neuron/neuroblastoma cells in vitro over a broad range of dosage levels |  | Effective | 1 | markedly less effective | 25.1 | Effective | 100 | 1 | most potent preparation across the whole dose range; also recorded: most active proliferative agent | relative effectiveness in proliferation assay (words) ([1]; earliest studies, FIG. 2, listed as MNTF 7mer): broader active dose range than the other preparations; stimulation of VSC4.1 cell proliferation over controls [1]: 350%; fold increase in proliferation [1, 2]: ~3.5 fold; fold increase in proliferation ([1]; second set, FIG. 3, lowest dose applied): 2.5 fold |
| FSRYAR [6mer] |  |  | sufficient to increase cell proliferation of motor neuron/neuroblastoma cells |  | Effective | 10 | comparably effective | 35.1 | Effective | 1 | 10 | poorest performers; also recorded: less effectively than the others | fold increase in proliferation ([1]; second set, FIG. 3, at 1 μg/ml): ~2.5 fold; correct projections (rat femoral nerve; [3]): significant increases in correct projections at every dose tested; incorrect projections to skin (rat femoral nerve; [3]): marked reductions in the number of incorrect projections to skin |
| FSRYARCLAEG [11mer] |  |  | sufficient to increase cell proliferation of motor neuron/neuroblastoma cells |  | Effective | 10 | comparably effective | 32.2 | Effective | 1 | 10 | poorest performers; also recorded: less effectively than the others | fold increase in proliferation ([1]; second set, FIG. 3, at 1 μg/ml): ~2.5 fold |
| CWMLSAFSRYARC [13mer] |  |  | sufficient to increase cell proliferation of motor neuron/neuroblastoma cells |  |  |  |  |  | Effective | 0.1 |  | some efficacy at the lowest dose, this effect fell off at higher doses | stimulation of VSC4.1 cell proliferation over controls [1]: ≥ 250% |
| 33mer: 33 amino acid MNTF1-F6 fragment, SEQ ID NO:1, made by solid phase synthesis; positive control in cell proliferation assays (LGTFWGDTLNCWMLSAFSRYARCLAEGHDGPTQ) [reference compound] | Effective | 0.01 | effective at increasing the proliferation of motoneuron/neuroblastoma cells | significantly (p<0.05) stimulated proliferation over control; also recorded: nearly as well as the 10mer at low doses; also recorded: clearly superior to the 21mer | Effective |  |  |  | Effective |  |  |  | OD (optimal dose) ([1]; assay set Mar. 28, 2003, listed as 33mer GLPg, L): 10 µg/mL; OD (optimal dose) ([1]; assay set Mar. 28, 2003, listed as 33mer Rg, L): 100 µg/mL; OD (optimal dose) ([1]; assay set Oct. 27, 2002, listed as 33mer GLPg, L): 0.1 µg/mL; OD (optimal dose) ([1]; assay set Oct. 27, 2002, listed as 33mer Rg, L): 10 µg/mL; maximal increase in cell proliferation [1, 4]: 34.3%; maximal increase in cell proliferation [1, 5]: 31.7%; relative effectiveness in proliferation assay (words) ([1]; earliest studies, FIG. 2, listed as GLP grade 33mer): most biologically active; dose of maximal response [1, 4]: 0.1 µg/mL; relative effectiveness in proliferation assay (words) [1, 4]: most effective in this assay; dose of maximal response [1, 5]: 10 µg/mL; peak fold response in proliferation ([1]; second set, FIG. 3, at 10 μg/ml): 3 fold; fold increase in proliferation [1, 2]: ~3 fold; correct projections of motoneurons to muscle (mean) (rat femoral nerve; [6]): 173; incorrect projections of motoneurons to skin (mean) (rat femoral nerve; [6]): 59; correct projections of motoneurons to muscle (mean) (rat femoral nerve; [7]): 210; incorrect projections of motoneurons to skin (mean) (rat femoral nerve; [7]): 31 |
| Cyclized MNTF 33mer: cyclized version of the MNTF1 33-mer, SEQ ID NO:1, research grade (LGTFWGDTLNCWMLSAFSRYARCLAEGHDGPTQ; also: cyclized) |  |  | less effective |  | Limited Efficacy. | 0.1 | limited efficacy | 12.9 |  |  |  |  | relative effectiveness in proliferation assay (words) ([1]; earliest studies, FIG. 2, listed as cyclized MNTF 33mer): very weak proliferative activity at low doses |
